{
  "source": "patent US6353004B1",
  "about": "“Peripherally acting anti-pruritic opiates” (Adolor Coporation, priority 1997, dated 2002)",
  "key": {"[1]": {"tested_on": "Compound 48/80-induced scratching", "test": "mouse scratch model: antagonism of Compound 48/80-induced scratching", "type": "in vivo, male Swiss albino mice", "details": "s.c.; for Mean % Inhibition of Scratching: Compound 48/80 challenge, scratching counted for 30 min; for antagonism of Compound 48/80-induced scratching (in words): mice", "procedure": "Testing was performed in a mouse scratch model under blind conditions.\nGroups of 8-10 male Swiss albino mice (Hilltop Lab Animals, Inc., Scottsdale, Pa.), weighing […], were used in the testing. They were housed under controlled temperature of 23-25° C. Food and water were freely available. Before the experiments, the mice were weighed, put into individual boxes and allowed to acclimate for 30 min.\nVehicle used to dissolve the test compounds: 20% w/w cremophor EL.\n100 μl of the vehicle (3-5 doses, n=8-10) was injected s.c. into the back of the neck of mice 20 min. before challenging them with 100 μl of Compound 48/80 (2 mg/ml; […]) injected s.c. into the back of the neck.\nTo each mouse of a group of 8-10 mice previously subjected to the standard challenge various doses of the compounds, to be tested for anti-pruritic activity, were administered s.c. into the back of the neck.\nFor each group of 8-10 mice, the mean values for scratching were normalized to relative % antagonism of scratching and then plotted vs. dose of test compounds. Interval estimates of mean A50 were determined by nonlinear regression analysis (Kaleida Graph) and mean % inhibition of scratching was calculated."}, "[2]": {"details": "i.v. administration; cited from earlier work"}},
  "data": [
    {"smiles": "Cl.O=C(O)C1(c2ccccc2)CCN(CCC(c2ccccc2)(c2ccccc2)c2ccccn2)CC1", "note": "[(1), 1-[3,3-diphenyl-3-(2-pyridyl)propyl]-4-phenyl-4-piperidinecarboxylic acid hydrochloride]", "values": [
      {"measurement": "Mean % Inhibition of Scratching", "setting": "[1]; dose 2.5 mg/kg", "value": 32, "unit": "%"},
      {"measurement": "Mean % Inhibition of Scratching", "setting": "[1]; dose 5.0 mg/kg", "value": 65, "unit": "%"},
      {"measurement": "Mean % Inhibition of Scratching", "setting": "[1]; dose 10.0 mg/kg", "value": 83, "unit": "%"},
      {"measurement": "antagonism of Compound 48/80-induced scratching (in words)", "setting": "[1]", "value": "antagonized Compound 48/80-induced scratching in a dose-related manner"}
    ]},
    {"smiles": "OC1(Cc2ccc(Cl)cc2)CCN(CCC(c2ccccc2)(c2ccccc2)c2ccccc2)CC1", "note": "[(2), 1-(3,3,3-triphenylpropyl)-4-hydroxy-4-p-chlorobenzylpiperidine]", "values": [
      {"measurement": "Mean % Inhibition of Scratching", "setting": "[1]; dose 1.0 mg/kg", "value": 35, "unit": "%"},
      {"measurement": "Mean % Inhibition of Scratching", "setting": "[1]; dose 2.5 mg/kg", "value": 68, "unit": "%"},
      {"measurement": "Mean % Inhibition of Scratching", "setting": "[1]; dose 5.0 mg/kg", "value": 94, "unit": "%"},
      {"measurement": "antagonism of Compound 48/80-induced scratching (in words)", "setting": "[1]", "value": "antagonized Compound 48/80-induced scratching in a dose-related manner"}
    ]},
    {"smiles": "CN(C)C(=O)C(CCN1CCC(O)(c2ccc(Cl)cc2)CC1)(c1ccccc1)c1ccccc1.Cl", "note": "[(3), reference compound]", "values": [
      {"measurement": "antagonism of Compound 48/80-induced scratching (in words)", "setting": "[1]", "value": "antagonized Compound 48/80-induced scratching in a dose-related manner"}
    ]},
    {"smiles": "CN1CC[C@]23c4c5ccc(O)c4O[C@H]2[C@@H](O)C=C[C@H]3[C@H]1C5", "note": "[morphine]", "values": [
      {"measurement": "generalized itching, share of patients", "setting": "[2]", "value": "about 1%"}
    ]}
  ]
}
